Measurements published in PubChem BioAssay (NCI).
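Test compounds were applied to cells in 96-well plates for 48 hours at 5 doses. GI50: concentration for 50% inhibition of growth. TGI marks complete inhibition of growth.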

Tests used:
Assay in all cases: NCI anticancer screen, dose series, 48 h
RPMI-8226 leukemia = system: RPMI-8226 leukemia
HCT-15 colon = system: HCT-15 colon
OVCAR-8 ovarian = system: OVCAR-8 ovarian
M14 melanoma = system: M14 melanoma
HS 578T breast = system: HS 578T breast
OVCAR-4 ovarian = system: OVCAR-4 ovarian
HCC-2998 colon = system: HCC-2998 colon
U251 CNS = system: U251 CNS
MDA-MB-231 breast = system: MDA-MB-231 breast
NCI/ADR-RES ovarian = system: NCI/ADR-RES ovarian
NCI-H226 lung = system: NCI-H226 lung
RXF 393 renal = system: RXF 393 renal
IGROV1 ovarian = system: IGROV1 ovarian
SF-539 CNS = system: SF-539 CNS
MOLT-4 leukemia = system: MOLT-4 leukemia
SF-295 CNS = system: SF-295 CNS
SK-MEL-28 melanoma = system: SK-MEL-28 melanoma
OVCAR-5 ovarian = system: OVCAR-5 ovarian
NCI-H23 lung = system: NCI-H23 lung
MDA-MB-435 = system: MDA-MB-435
SNB-19 CNS = system: SNB-19 CNS
SNB-75 CNS = system: SNB-75 CNS
MALME-3M melanoma = system: MALME-3M melanoma
ACHN renal = system: ACHN renal
CAKI-1 renal = system: CAKI-1 renal
UO-31 renal = system: UO-31 renal
KM12 colon = system: KM12 colon
K-562 leukemia = system: K-562 leukemia
SF-268 CNS = system: SF-268 CNS
TK-10 renal = system: TK-10 renal
NCI-H522 lung = system: NCI-H522 lung
SW-620 colon = system: SW-620 colon
COLO 205 colon = system: COLO 205 colon
SK-MEL-5 melanoma = system: SK-MEL-5 melanoma
786-0 renal = system: 786-0 renal
SK-OV-3 ovarian = system: SK-OV-3 ovarian
CCRF-CEM leukemia = system: CCRF-CEM leukemia
EKVX NSCLC = system: EKVX NSCLC
UACC-62 melanoma = system: UACC-62 melanoma
LOX IMVI melanoma = system: LOX IMVI melanoma
A498 renal = system: A498 renal
SK-MEL-2 melanoma = system: SK-MEL-2 melanoma
SN12C renal = system: SN12C renal
UACC-257 melanoma = system: UACC-257 melanoma
MCF7 breast = system: MCF7 breast
BT-549 breast = system: BT-549 breast
HOP-62 NSCLC = system: HOP-62 NSCLC
HT29 colon = system: HT29 colon
A549 NSCLC = system: A549 NSCLC
PC-3 prostate = system: PC-3 prostate
SR leukemia = system: SR leukemia
DU-145 prostate = system: DU-145 prostate
T-47D breast = system: T-47D breast
HCT-116 colon = system: HCT-116 colon
NCI-H460 lung = system: NCI-H460 lung

## O=c1c2cc(-c3ccc(F)cc3F)ccc2n(O)c(=O)n1-c1cccc(C(F)(F)F)c1
RPMI-8226 leukemia
  GI50: 1020 nM
  TGI: 5850 nM
HCT-15 colon
  GI50: 435 nM
  TGI: 2280 nM
OVCAR-8 ovarian
  GI50: 1080 nM
  TGI: 8890 nM
M14 melanoma
  GI50: 773 nM
  TGI: 3470 nM
HS 578T breast
  GI50: 837 nM
  TGI: 4420 nM
OVCAR-4 ovarian
  GI50: 2190 nM
  TGI: > 100000 nM
HCC-2998 colon
  GI50: 2510 nM
  TGI: 9900 nM
U251 CNS
  GI50: 1860 nM
  TGI: 15700 nM
MDA-MB-231 breast
  GI50: 1590 nM
  TGI: 6360 nM
NCI/ADR-RES ovarian
  GI50: 1170 nM
  TGI: 10500 nM
NCI-H226 lung
  GI50: 1010 nM
  TGI: 3640 nM
RXF 393 renal
  GI50: 1050 nM
  TGI: 3140 nM
IGROV1 ovarian
  GI50: 2030 nM
  TGI: 25400 nM
SF-539 CNS
  GI50: 1470 nM
  TGI: 7940 nM
MOLT-4 leukemia
  GI50: 419 nM
  TGI: 2130 nM
SF-295 CNS
  GI50: 1650 nM
  TGI: 3450 nM
SK-MEL-28 melanoma
  GI50: 1260 nM
  TGI: 10000 nM
OVCAR-5 ovarian
  GI50: 3380 nM
  TGI: 92900 nM
NCI-H23 lung
  GI50: 722 nM
  TGI: 5300 nM
MDA-MB-435
  GI50: 1560 nM
  TGI: 7670 nM
SNB-19 CNS
  GI50: 682 nM
  TGI: > 100000 nM
SNB-75 CNS
  GI50: 1510 nM
  TGI: 6450 nM
MALME-3M melanoma
  GI50: 1510 nM
  TGI: 5390 nM
ACHN renal
  GI50: 2080 nM
  TGI: 10400 nM
CAKI-1 renal
  GI50: 1610 nM
  TGI: 6020 nM
UO-31 renal
  GI50: 2230 nM
  TGI: 9300 nM
KM12 colon
  GI50: 2160 nM
  TGI: 7070 nM
K-562 leukemia
  GI50: 424 nM
  TGI: 35000 nM
SF-268 CNS
  GI50: 1750 nM
  TGI: 15500 nM
TK-10 renal
  GI50: 4190 nM
  TGI: 9170 nM
NCI-H522 lung
  GI50: 369 nM
  TGI: 2550 nM
SW-620 colon
  GI50: 2050 nM
  TGI: 10500 nM
COLO 205 colon
  GI50: 1940 nM
  TGI: 4050 nM
SK-MEL-5 melanoma
  GI50: 263 nM
  TGI: 708 nM
786-0 renal
  GI50: 2150 nM
  TGI: 5660 nM
SK-OV-3 ovarian
  GI50: 1130 nM
  TGI: 3880 nM
CCRF-CEM leukemia
  GI50: 3120 nM
  TGI: > 100000 nM
EKVX NSCLC
  GI50: 2350 nM
  TGI: 8470 nM
UACC-62 melanoma
  GI50: 323 nM
  TGI: 1310 nM
LOX IMVI melanoma
  GI50: 1220 nM
  TGI: 2940 nM
A498 renal
  GI50: 347 nM
  TGI: 1260 nM
SK-MEL-2 melanoma
  GI50: 534 nM
  TGI: 2290 nM
SN12C renal
  GI50: 683 nM
  TGI: 5410 nM
UACC-257 melanoma
  GI50: 1010 nM
  TGI: 4480 nM
MCF7 breast
  GI50: 1610 nM
  TGI: 7120 nM
BT-549 breast
  GI50: 437 nM
  TGI: 1580 nM
HOP-62 NSCLC
  GI50: 1800 nM
  TGI: 4340 nM
HT29 colon
  GI50: 4300 nM
  TGI: 26800 nM
A549 NSCLC
  GI50: 2950 nM
  TGI: 20100 nM
PC-3 prostate
  GI50: 1800 nM
  TGI: 6950 nM
SR leukemia
  GI50: 259 nM
  TGI: 1880 nM
DU-145 prostate
  GI50: 2480 nM
  TGI: 49100 nM
T-47D breast
  GI50: 1490 nM
  TGI: 5760 nM
HCT-116 colon
  GI50: 420 nM
  TGI: 1610 nM
NCI-H460 lung
  GI50: 668 nM
  TGI: 5230 nM
